Read-outs that look alike come from different tables or passages of the source.
Columns and labels:
IR [1] = conditions: ref [20]; cited from earlier work
IGF-1R [2] = conditions: cited from earlier work
mitogenic signalling = conditions: ref [20], cited from earlier work
IR [3] = conditions: cited from earlier work
Source text: This is similar to the poorly mitogenic S597 peptide, which also promoted slowe ...

IR [4] = conditions: compared to insulin; ref [20], [21]; cited from earlier work
[5] = system: ERK 1/2 / p90RSK phosphorylation in L6 IR-A cells; experiment: Western blot time-course, MAPK pathway, L6 IR-A; type: cell-based, rat cells; human IR-A; conditions: 10 nM, then reducing between t = 10 – 30 min
Description: (§2) R/^-IR-B (80,000 cells/well) or L6 IR-A cells (240,000 cells/well) were seeded in 6-well plates and allowed to grow to confluence (~ 48 hours). Prior to stimulation, cells were serum starved in SFM/1% BSA for 4 h. […] Lysates were scraped from the well, spun at 13,000 rpm for 3 min at 0°C to remove cell debris and stored at -80°C. Lysate protein concentrations were quantified using Bio-Rad DC™ Protein Assay and 20μg of each sample was separated in 10% glycine gels under reducing conditions. Transferred blots were blocked for 1 h at room temperature in TBST containing 3% BSA and probed with primary antibodies (Pathscan Antibody, pAkt(Thr308), pGSK(Ser9), pAS160(Thr642)) in blocking solution (TBST containing 3% BSA) overnight at 4°C. All blots were also probed with anti-β-tubulin as a loading control. Blots were washed six times for 5 min each in TBST then probed with either HRP-conjugated (dose-response) or fluorophore-conjugated (time-course) secondary antibodies for 1 hour at room temperature. The washing was then repeated.
(§3) Dose response blots were developed in ECL reagent according to manufacturer’s instruction and imaged in Fujiflim LAS-4000 Luminescent Image Analyzer. Time course blots were imaged with an Odyssey® CLx Imaging System. All blots were performed at least three times. All data were analysed with LI-COR Image Studio™ software and each band intensity was normalized to tubulin of its respective lane.

[6] = system: Akt / GSK-3β / S6 phosphorylation in L6 IR-A cells; experiment: Western blot time-course, PI3K/Akt pathway, L6 IR-A; type: cell-based, rat cells; human IR-A; conditions: 10 nM; for time to optimal phosphorylation of Akt (Ser473, Thr308) and GSK-3β: maximal up to t = 30 min
Description: as §2, §3

IR-A = IR-A receptor internalization; type: cell-based, human; conditions: 10 nM; for IR-A internalization (in words): 2 hours post-stimulation; for IR-A remaining on the cell surface: within 2 h, % of surface/total receptor normalised to SFM t = 0
Description: All data are the mean ± S.E.M. n = at least 3 independent experiments. Error bars are shown when greater than the size of the symbols.
(§1) Assays were performed in triplicate in at least three independent experiments.

IGF-1R [7] = biological target: T1, IGF-1R (Homo sapiens, UniProt P08069); experiment: Kinase receptor activation assay (KIRA), IGF-1R; type: cell-based; conditions: 10 min stimulation, P6 cells
T1 construct: expressed in transfected cells; host or cells: P6 cells (BALB/c3T3 mouse fibroblasts overexpressing human IGF-1R); Triton X-100 lysate captured on anti-IGF-1R antibody 24-31

IR-B = experiment: Kinase receptor activation assay (KIRA), IR-B; type: cell-based, human; conditions: 10 min stimulation, Eu-PY20 detection
[8] = system: L6 rat skeletal myoblasts overexpressing human IR-A (L6 IR-A cells); experiment: DNA synthesis assay (EdU incorporation); type: cell-based; conditions: 18 h, equipotent within fold stated
Description: as §1

[9] = system: insulin receptor isoform A (IR-A); conditions: compared to native insulin; ref [21]; cited from earlier work
IGF-1R [10] = biological target: T1, IGF-1R; conditions: % of native insulin; ref [21], [23]; cited from earlier work
IR isoform A (IR-A) = biological target: T2, IR isoform A (IR-A) (Homo sapiens, UniProt P06213); conditions: compared to insulin; ref [21]–[23], [32]; cited from earlier work
T2 construct: expressed in transfected cells; host or cells: R-IR-A cells (IGF-1R knockout mouse embryonic fibroblasts over-expressing human IR-A); Triton X-100 lysate captured on anti-IR antibody 83-7

IGF-1R [11] = biological target: T1, IGF-1R; experiment: Competition binding assay, europium-labelled IGF-I, IGF-1R
Description: Results are expressed as a percentage of binding in the absence of competing ligand (%B/B0). […] All data are the mean ± S.E.M. n = at least 3 independent experiments. Error bars are shown when greater than the size of the symbols.
Human IR isoform A, isoform B and IGF-1R were solubilized from R^-IR-A, R^-IR-B and P6 cells, respectively. Briefly, cells were serum starved in serum-free medium (SFM) containing 1% (w/v) BSA for 4 h before lysis in ice-cold lysis buffer (20 mM HEPES, 150 mM NaCl, 1.5mM MgCl2, 10% (v/v) glycerol, 1% (v/v) Triton X-100, 1mM EGTA, and 1 mM phenylmethylsulfonyl fluoride, pH 7.5) for 1 h at 4°C. Lysates were centrifuged for 10 min at 2,200g, and then 100 µL of lysate was added per well to a white Greiner Lumitrac 600 96-well plate (16 h at 4°C) previously coated with anti-IR antibody 83-7 or anti-IGF-1R antibody 24-31 (250 ng/well in bicarbonate buffer, pH 9.2). […] Wells were washed with 20 mM Tris, pH 7.4, 150 mM NaCl (TBS) and 0.1% (v/v) Tween 20 (TBST). Then 100 µl/well DELFIA enhancement solution (PerkinElmer Life Sciences) was added. After 10 min, time-resolved fluorescence was measured using 340-nm excitation and 612-nm emission filters with a BMG Lab Technologies Polarstar fluorometer (Mornington, Australia). Assays were performed in triplicate in at least three independent experiments.

C57BL6 male mice = experiment: Insulin tolerance test; type: in vivo, mouse; conditions: 0.75 IU/kg ip, chow fed mice, non-fasting, 2 hours post-treatment
IR isoform B (IR-B) = biological target: T3, IR isoform B (IR-B) (Homo sapiens, UniProt P06213); conditions: compared to insulin; ref [21]–[23], [32]; cited from earlier work
T3 construct: expressed in transfected cells; host or cells: R-IR-B cells (IGF-1R knockout mouse embryonic fibroblasts over-expressing human IR-B); Triton X-100 lysate captured on anti-IR antibody 83-7
T3 sequence (P06213 28-758 limits assumed): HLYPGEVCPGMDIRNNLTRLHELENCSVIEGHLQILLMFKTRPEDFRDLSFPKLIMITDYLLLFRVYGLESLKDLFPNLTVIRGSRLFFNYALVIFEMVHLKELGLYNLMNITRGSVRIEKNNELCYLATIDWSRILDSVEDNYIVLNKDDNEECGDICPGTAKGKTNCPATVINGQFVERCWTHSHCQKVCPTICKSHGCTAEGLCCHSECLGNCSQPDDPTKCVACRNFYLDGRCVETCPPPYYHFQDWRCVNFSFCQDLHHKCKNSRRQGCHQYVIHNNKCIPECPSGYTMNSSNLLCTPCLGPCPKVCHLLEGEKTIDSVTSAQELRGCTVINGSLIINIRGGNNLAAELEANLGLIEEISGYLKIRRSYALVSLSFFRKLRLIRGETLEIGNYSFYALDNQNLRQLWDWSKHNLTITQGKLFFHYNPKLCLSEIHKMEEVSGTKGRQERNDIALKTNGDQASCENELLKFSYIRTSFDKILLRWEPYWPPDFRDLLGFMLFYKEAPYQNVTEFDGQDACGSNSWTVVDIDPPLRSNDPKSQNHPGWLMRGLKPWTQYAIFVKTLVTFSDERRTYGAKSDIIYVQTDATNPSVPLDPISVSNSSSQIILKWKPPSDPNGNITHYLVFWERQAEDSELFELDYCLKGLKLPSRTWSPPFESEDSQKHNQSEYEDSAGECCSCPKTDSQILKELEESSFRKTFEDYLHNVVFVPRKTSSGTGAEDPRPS
T3 sequence (P06213 763-1382 partner limits assumed): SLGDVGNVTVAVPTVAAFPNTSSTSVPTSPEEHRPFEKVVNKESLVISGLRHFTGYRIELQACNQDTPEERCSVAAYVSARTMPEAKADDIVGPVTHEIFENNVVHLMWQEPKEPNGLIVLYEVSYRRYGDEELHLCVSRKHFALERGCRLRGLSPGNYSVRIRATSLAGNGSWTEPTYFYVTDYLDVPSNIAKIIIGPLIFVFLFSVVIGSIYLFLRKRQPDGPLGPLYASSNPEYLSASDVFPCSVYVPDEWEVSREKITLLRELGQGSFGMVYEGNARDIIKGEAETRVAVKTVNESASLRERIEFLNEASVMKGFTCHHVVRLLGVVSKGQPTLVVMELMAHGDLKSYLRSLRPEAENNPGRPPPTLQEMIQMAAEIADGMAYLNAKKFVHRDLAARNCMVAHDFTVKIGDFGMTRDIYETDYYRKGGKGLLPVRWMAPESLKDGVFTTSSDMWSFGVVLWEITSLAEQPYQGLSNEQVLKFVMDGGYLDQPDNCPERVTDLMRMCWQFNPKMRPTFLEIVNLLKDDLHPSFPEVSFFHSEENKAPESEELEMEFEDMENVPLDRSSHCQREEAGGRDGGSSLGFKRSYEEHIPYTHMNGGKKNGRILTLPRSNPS

T2 sequence (P06213 28-1370 isoform P06213-2 limits assumed): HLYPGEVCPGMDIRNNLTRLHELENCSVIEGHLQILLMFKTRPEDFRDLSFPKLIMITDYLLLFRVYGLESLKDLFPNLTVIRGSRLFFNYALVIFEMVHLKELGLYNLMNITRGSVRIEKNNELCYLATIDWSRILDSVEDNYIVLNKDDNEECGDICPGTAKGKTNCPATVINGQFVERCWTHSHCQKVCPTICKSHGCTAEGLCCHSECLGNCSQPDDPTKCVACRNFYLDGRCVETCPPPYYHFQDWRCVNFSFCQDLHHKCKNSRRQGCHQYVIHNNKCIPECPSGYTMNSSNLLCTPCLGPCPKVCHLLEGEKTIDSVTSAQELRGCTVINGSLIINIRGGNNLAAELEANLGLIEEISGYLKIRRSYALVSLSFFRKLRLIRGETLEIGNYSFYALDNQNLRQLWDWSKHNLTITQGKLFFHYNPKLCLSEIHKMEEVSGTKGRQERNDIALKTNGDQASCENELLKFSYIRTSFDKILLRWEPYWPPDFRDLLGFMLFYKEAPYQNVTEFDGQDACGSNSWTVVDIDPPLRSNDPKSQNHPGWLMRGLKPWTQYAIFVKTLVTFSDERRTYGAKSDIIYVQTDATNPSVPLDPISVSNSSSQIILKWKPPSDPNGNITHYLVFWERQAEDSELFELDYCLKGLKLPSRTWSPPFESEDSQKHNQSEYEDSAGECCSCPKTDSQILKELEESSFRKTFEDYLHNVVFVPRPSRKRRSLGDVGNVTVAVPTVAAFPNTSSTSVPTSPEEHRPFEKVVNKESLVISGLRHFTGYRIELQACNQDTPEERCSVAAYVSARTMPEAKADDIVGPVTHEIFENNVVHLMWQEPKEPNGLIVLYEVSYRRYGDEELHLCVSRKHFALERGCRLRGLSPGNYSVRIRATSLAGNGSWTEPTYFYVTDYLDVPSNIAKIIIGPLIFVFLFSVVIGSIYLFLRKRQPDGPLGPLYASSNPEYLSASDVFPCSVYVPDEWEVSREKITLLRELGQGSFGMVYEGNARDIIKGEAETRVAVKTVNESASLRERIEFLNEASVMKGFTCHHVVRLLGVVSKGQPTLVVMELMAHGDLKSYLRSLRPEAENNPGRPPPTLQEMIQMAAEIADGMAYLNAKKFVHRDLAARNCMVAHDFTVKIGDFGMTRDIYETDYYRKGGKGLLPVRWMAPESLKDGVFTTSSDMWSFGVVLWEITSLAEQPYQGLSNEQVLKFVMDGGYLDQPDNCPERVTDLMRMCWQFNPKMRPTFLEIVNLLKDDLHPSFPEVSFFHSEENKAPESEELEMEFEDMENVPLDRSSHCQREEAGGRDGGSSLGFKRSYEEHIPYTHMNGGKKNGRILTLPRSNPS
T2 sequence (P06213 763-1382 partner limits assumed): as the sequence (P06213 763-1382 partner limits assumed) above

Q: For HisB10Asp insulin [insulin X10], which “receptor internalization (in words)” value (IR [1]) is on record?
A: increased rate of receptor internalization

Q: What about the “IGF-1R binding affinity (in words)” value (IGF-1R [2]; compared to insulin, ref [20], [21]) of the same substance?
A: increased binding affinity for the growth-promoting insulin-like growth factor receptor 1 (IGF-1R)

Q: What about the “mitogenic signalling (in words)” value (mitogenic signalling) of the same substance?
A: enhanced mitogenic signalling

Q: What about the “phosphorylation of IR-A Tyr960, Tyr1146 and Tyr1322 (in words)” value (IR [3]; compared to insulin, ref [32]) of the same substance?
A: increased phosphorylation of IR-A Tyr960, Tyr1146 and Tyr1322 compared to insulin

Q: What about the “phosphorylation of the IR (in words)” value (IR [3]; ref [20]) of the same substance?
A: sustained phosphorylation of the IR

Q: What about the “rate of dissociation from the IR (in words)” value (IR [4]) of the same substance?
A: reduced rate of dissociation from the IR compared to insulin

Q: Which results are given for human insulin?
A: time to maximal phosphorylation of ERK1/2 and p90RSK [5]: 10 min; kinetics of activation of the PI3K/Akt pathway (in words) ([6]; 0–30 min, p-Akt Ser473, p-Akt Thr308, p-GSK3β, p-S6): essentially the same; time to optimal phosphorylation of Akt (Ser473, Thr308) and GSK-3β [6]: ≤ 20 s; IR-A internalization (in words) (IR-A): rapidly induced receptor internalization post-stimulation (evident within 10 min); IR-A remaining on the cell surface (IR-A): 60%; IGF-1R activation (in words) (IGF-1R [7]): equipotent but poorly activated the IGF-1R

Q: For insulin glargine, which “time to maximal phosphorylation of ERK1/2 and p90RSK” value [5] is on record?
A: 10 min

Q: And the “IR-B activation (in words)” value (IR-B)?
A: potency similar to native insulin

Q: What about the “time to optimal phosphorylation of Akt (Ser473, Thr308) and GSK-3β” value [6] of the same substance?
A: ≤ 20 s

Q: What about the “DNA synthesis, potency difference from native insulin” value [8] of the same substance?
A: ≤ 2 fold

Q: And the “IGF-1R binding affinity (in words)” value (IGF-1R [2]; compared to native insulin, ref [22])?
A: binds to the IGF-1R with higher affinity

Q: What about the “IR-A dissociation kinetics (in words)” value [9] of the same substance?
A: dissociation kinetics do not differ from native insulin

Q: And the “IR-A internalization (in words)” value (IR-A)?
A: rapidly induced receptor internalization post-stimulation (evident within 10 min)

Q: And the “IR-A remaining on the cell surface” value (IR-A)?
A: 60%

Q: And the “IGF-1R affinity, literature range” value (IGF-1R [10])?
A: 460–650%

Q: What about the “IR-A binding, literature range” value (IR isoform A (IR-A)) of the same substance?
A: 40-86%

Q: And the “mitogenic cell signalling (in words)” value (mitogenic signalling; compared to native insulin, [23])?
A: equipotent in promoting mitogenic cell signalling

Q: And the “IGF-1R affinity compared to native insulin” value (IGF-1R [11]; % of native insulin)?
A: 480%

Q: And the IC50 (IGF-1R [11]; competition for europium-labelled IGF-I, solubilized receptor from P6 cells, 16 h at 4°C, mean ± S.E.M., n = 3 or more)?
A: 6.71 ± 3.9 nM

Q: And the “blood glucose lowering (in words)” value (C57BL6 male mice)?
A: no statistical difference

Q: What about the “IR-B binding, literature range” value (IR isoform B (IR-B)) of the same substance?
A: 50-85%

From publication PMC9271792 (Frontiers in Endocrinology, 2022)
